Values quoted from earlier work as cited in US20030199483A1, “Aldosterone receptor antagonist and alpha-adrenergic modulating agent combination therapy for prevention or treatment of pathogenic conditions” (priority 2002, published 2003).

System: myocardial fibrosis in animal models

SMILES: CC(=O)S[C@@H]1CC2=CC(=O)CC[C@]2(C)[C@H]2CC[C@@]3(C)[C@@H](CC[C@@]34CCC(=O)O4)[C@H]12 [spironolactone, 17-hydroxy-7α-mercapto-3-oxo-17α-pregn-4-ene-21-carboxylic acid γ-lactone acetate]
- myocardial fibrosis (D. Klug et al 1993): prevents myocardial fibrosis
- fibrosis (irrespective of the development of left ventricular hypertrophy and the presence of hypertension, C. G. Brilla et al 1993): prevent fibrosis
